Source: patent US6194411A, “3(2H)-pyridazinone derivatives and pharmaceutical compositions containing these compounds” (priority 1995, dated 2001)
Like-named read-outs stand apart in the source and are kept apart here.

Key:
[1] = tested on: phenylephrine-induced intraurethral hypertension; experiment: phenylephrine-induced intraurethral hypertension in anaesthetized cats; assay type: in vivo, cat; settings: for ED50: Felis catus, phenylephrine 15 μg/kg/min intravenous, read-out: ED50 urethra (dose decreasing by 50% the hypertension induced by phenylephrine); for ED50 / D/U: ED50 (diastolic pressure)/ED50 (urethra): iv., anaesthetized cat; for D/U: ED50 (diastolic pressure)/ED50 (urethra): urogenital selectivity; for urogenital selectivity (in words): in vivo
Description: (§1) In an in vivo animal model, in anaesthetized cat, intraurethral hypertension can be induced by α1 -adrenoceptor agonists [e.g. phenylephrine, which is chemically (-)-1-(3-hydroxyphenyl)-2-(methylamino)ethanol]. This hypertension-inducing effect can be antagonized by α1 -adrenoceptor antagonists. The antihypertensive effect is expressed by reduction of the diastolic pressure. Results of this experiment are summarized in Table 1 (the experiment is described in detail in the Pharmacological part).
^a Dose decreasing by 50% the hypertension induced by a 15 μg/kg/min
(§2) Effect on the intraurethral and diastolic blood pressure on anaesthetized cats
(§3) This investigation was performed according to the method of Lefevre et al. [Br. J. Pharmacol. 109, 1282 (1993)]. The essence of the method can be summarized as follows.
(§4) Cannules were introduced into the femoral artery and vein of pentobarbitone-anaesthetized, artificially ventilated cats of both sexes weighing 2.5 to 3.5 kg for administration of the compounds and measurement of blood pressure. The bladder was exposed by lower median laporotomy and a catheter was introduced into the urethra through the trigonum. The arterial and intraurethral pressures were registered on a Hellige polygraph by using a pressure transducer.
(§5) For excluding autonomic effects mediated not through α-adrenoceptors,mecamylamine, atropine and propranolol were administered intravenously in doses of 0.5, 0.75 and 0.5 mg/kg, respectively.
(§6) An increase in intraurethral and blood pressure was induced by phenylephrine infusion of 15 μg/kg/min; the change over the baseline pressure was considered to be 100%. The test substances were administered intravenously in 1-1000 μg/kg cumulative bolus doses. An interval of at least 5 minutes was allowed after each dose. The dose of α-antagonist inhibiting by 50% the phenylephrine-induced increase in urethral pressure ([…] uretha) as well as the dose […] by 50% the phenylephrine-induced diastolic total pressure elevation (ED50 diastolic value) were determined.

diastolic pressure = experiment: phenylephrine-induced diastolic blood pressure increase in anaesthetized cats; assay type: in vivo, cat; settings: for ED50: Felis catus, iv., anaesthetized cat, phenylephrine 15 μg/kg/min, read-out: ED50 diastolic pressure (dose decreasing by 50% the diastolic total pressure increased by phenylephrine); for influence on other cardiovascular parameters (in words): doses that diminish the intraurethral pressure
Description: as §1
^b Dose decreasing by 50% the diastolic total pressure increased by
as §2, §3, §4, §5, §6

[2] = tested on: α1-adrenoceptor (mesenteric artery); experiment: isolated organ: postsynaptic α1-adrenoceptor antagonism on mesenteric artery; design: species or system rat; settings: agonist phenylephrine; 37° C; 30-minute incubation with antagonist
Experimental: (§7) In addition, investigations were performed on blood vessel and human hyperplasic prostate tissue preparations. In these experiments, a mesenteric artery was used as a model of resistance vessels which affect the blood pressure. We measured the extent of inhibition of the compounds of the invention and that of the reference drugs, respectively, on the contraction-inducing action of the α1 -agonist (phenylephrine).The α1 -adrenoceptor antagonism was then characterized by pA2 values.
(§8) α1 -Adrenoceptor antagonistic effect in isolated organ experiments
A) Investigation of postsynaptic α1 -adrenoceptors on the rate mesenteric artery
This test was performed according to the method of Angus et al. [J. Physiol.

[3] = molecular target: T1, α1-adrenoceptor (human hyperplasic prostate tissue) (Homo sapiens, UniProt P35348); experiment: isolated organ: postsynaptic α1-adrenoceptor antagonism on human hyperplasic prostate tissue; settings: agonist phenylephrine; 37° C; 30 minutes incubation with antagonist; read-out: pA2 human hyperplasic prostate tissue (converted)
T1 construct: Strips prepared from human hyperplasic prostate tissue; from tissue; host or cells: human hyperplastic prostate strips
T1 sequence (P35348 1-466): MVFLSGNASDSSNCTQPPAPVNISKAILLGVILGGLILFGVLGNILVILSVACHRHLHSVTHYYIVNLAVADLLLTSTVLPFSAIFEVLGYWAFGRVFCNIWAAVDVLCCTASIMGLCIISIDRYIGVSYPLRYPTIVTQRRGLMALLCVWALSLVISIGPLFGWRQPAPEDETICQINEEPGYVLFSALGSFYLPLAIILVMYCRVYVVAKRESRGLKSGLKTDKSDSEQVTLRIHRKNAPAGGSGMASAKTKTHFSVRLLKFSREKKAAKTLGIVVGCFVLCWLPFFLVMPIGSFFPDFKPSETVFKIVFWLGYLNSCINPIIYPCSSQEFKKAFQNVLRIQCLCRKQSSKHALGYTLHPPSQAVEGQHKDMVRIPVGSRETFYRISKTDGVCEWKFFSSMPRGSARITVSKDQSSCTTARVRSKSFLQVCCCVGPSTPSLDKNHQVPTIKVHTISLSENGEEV
Experimental: as §7, §8
(§9) B) Investigation of postsynaptic α1 -adrenoceptors on human prostate preparation
(§10) This test was performed according to the method of Scheu-Eei Yu et al. [Eur. J. Pharmacol. 252, 29 (1994)].
(§11) Strips prepared from human hyperplasic prostate tissue were suspended in a Krebs solution bubbled with carbogen at 37° C. A pre-tension of 1 g and an equilibration period of 1 hour were used. A dose-effect curve was established for phenylephrine. Then, after washing out and incubation with the antagonist for 30 minutes, the dose/effect curve was again determined. For characterizing the antagonistic effects, pA2 values were calculated.

[4] = tested on: α1-adrenoceptor (human hyperplasic prostate tissue); experiment: as above; settings: for Selectivity (prostate/artery): antilogarithmic ratio of pA2 value, human prostate vs rat mesenteric artery; for α1-adrenoceptor antagonistic effect (in words): Table 2 data, prostate tissue and resistance artery
Experimental: as §7, §8, §9, §10, §11

[5] = molecular target: T2, postsynaptic α2-adrenoceptor (vena saphena) (Canis lupus familiaris, UniProt A0A8I3Q7S8); experiment: postsynaptic α2-adrenoceptor antagonism in dog vena saphena preparation
T2 construct: Postsynaptic α2 -adrenoceptor antagonism in dog vena saphena preparation; from tissue; host or cells: dog saphenous vein
T2 sequence (A0A8I3Q7S8 1-427): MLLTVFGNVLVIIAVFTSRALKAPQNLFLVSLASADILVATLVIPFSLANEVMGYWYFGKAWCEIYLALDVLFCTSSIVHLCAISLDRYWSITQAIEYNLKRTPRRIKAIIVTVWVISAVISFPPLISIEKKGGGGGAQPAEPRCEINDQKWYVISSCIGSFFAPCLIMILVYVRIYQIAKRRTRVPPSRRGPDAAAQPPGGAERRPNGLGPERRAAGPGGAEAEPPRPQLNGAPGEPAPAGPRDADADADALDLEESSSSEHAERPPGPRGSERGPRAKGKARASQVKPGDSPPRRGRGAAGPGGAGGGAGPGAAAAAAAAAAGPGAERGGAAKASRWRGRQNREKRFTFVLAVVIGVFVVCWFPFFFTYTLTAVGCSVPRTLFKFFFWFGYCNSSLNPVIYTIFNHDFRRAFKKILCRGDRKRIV
Experimental: (§12) The antagonism was characterized by the pA2 values.
(§13) B) Postsynaptic α2 -adrenoceptor antagonism in dog vena saphena preparation
(§14) This investigation was carried out by the method of Fowler et al. [J. Pharmcol.
(§15) β-Adrenoceptors were inactivated with propranolol. […] After 30 minutes, the organs were incubated with the […] for 30 minutes. Also here, the antagonism was characterized by the pA2 values.

[6] = tested on: postsynaptic α2-adrenoceptor (vena saphena); experiment: as above; settings: for selectivity toward the postsynaptic α2-receptors (in words) / α2-adrenoceptor antagonistic activity (in words): Table 3 data; for Selectivity postsynaptic/presynaptic: antilogarithmic ratio of pA2 values, dog vena saphena vs rat vas deferens
Experimental: as §12, §13, §14, §15

[7] = molecular target: T3, presynaptic α2-adrenoceptor (vas deferens) (Rattus norvegicus, UniProt P22909); experiment: presynaptic α2-adrenoceptor antagonism on rat vas deferens preparation; settings: agonist xylazine, 35° C, electrically stimulated, read-out: pA2 presynaptic (converted)
T3 construct: Vas deferents were isolated from SPRD rats; from tissue; host or cells: vas deferens of SPRD rats, electrically stimulated
T3 sequence (P22909 1-465): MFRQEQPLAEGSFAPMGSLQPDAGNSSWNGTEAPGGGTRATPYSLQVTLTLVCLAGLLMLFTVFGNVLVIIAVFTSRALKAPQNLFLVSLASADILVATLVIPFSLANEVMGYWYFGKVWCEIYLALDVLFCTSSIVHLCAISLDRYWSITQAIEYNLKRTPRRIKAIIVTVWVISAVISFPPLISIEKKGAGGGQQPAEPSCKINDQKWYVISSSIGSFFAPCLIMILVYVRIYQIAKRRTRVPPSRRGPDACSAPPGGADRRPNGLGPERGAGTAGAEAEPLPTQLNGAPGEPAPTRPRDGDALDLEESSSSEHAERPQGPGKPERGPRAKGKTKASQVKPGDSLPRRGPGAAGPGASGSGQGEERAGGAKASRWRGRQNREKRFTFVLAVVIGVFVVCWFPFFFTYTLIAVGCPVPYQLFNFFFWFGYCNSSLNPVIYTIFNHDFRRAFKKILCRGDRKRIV
Experimental: as §12
Pre- and postsynaptic α1 -adrenoceptor antagonistic effects
A) Presynaptic α2 -adrenoceptor antagonism on the rat vas deference preparation
Briefly, the experiment was performed as follows.
Vas deferents were isolated from SPRD rats according to Vizi et al. [N. S. Arch. Pharmcol.
A dose/effect curve was determined for xylazine. Then, after washing out, the organ was incubated with the antagonist. The dose/effect curve was taken again with xylazine in the presence of the antagonist. The antagonism was characterized by the pA2 value determined according to the method of Arunlakshana and Schield [Br. J. Pharmcol.

[8] = toxicity (statement, no test described)
[9] = background; cited from earlier work
[10] = dog vena saphena, agonist UK 14304, 30 minutes incubation, read-out: pA2 postsynaptic (converted)

Structure (SMILES): O=c1cccnn1CCCNCC1COc2ccccc2O1 (racemic) [(3), 2-[3-([1,4]benzodioxan-2-ylmethylamino)-1-propyl]-3(2H)-pyridazinone, reference compound]
- ED50 [1]: 0.0284 mg/kg
- D/U: ED50 (diastolic pressure)/ED50 (urethra) [1]: 4.6
- ED50 (diastolic pressure): 0.13 mg/kg
- pA2 rat mesenteric artery [2]: 7.16
- Kb [3]: 30.9 nM
- Selectivity (prostate/artery) [4]: 2.24

Structure (SMILES): O=c1cccnn1CCCNC[C@@H]1COc2ccccc2O1 [(1), R-2-[3-([1,4]-benzodioxan-2-ylmethylamino)-1-propyl]-3(2H)-pyridazinone]
- ED50 [1]: 0.0139 mg/kg
- urogenital selectivity (in words) [1]: significant urogenital selectivity
- D/U: ED50 (diastolic pressure)/ED50 (urethra) [1]: > 63.9
- ED50 (diastolic pressure): > 0.888 mg/kg
- influence on other cardiovascular parameters (in words) (diastolic pressure): very weak influence only on other cardiovascular parameters
- Kb [5, 10]: 13.5 nM
- selectivity toward the postsynaptic α2-receptors (in words) [6]: excellent selectivity toward the postsynaptic α2 -receptors
- α2-adrenoceptor antagonistic activity (in words) [6]: strong α2 -adrenoceptor antagonistic activity
- Selectivity postsynaptic/presynaptic [6]: 115.0
- pA2 rat mesenteric artery [2]: 6.56
- Kb [7]: 1550 nM
- Kb [3]: 63.1 nM
- α1-adrenoceptor antagonistic effect (in words) [4]: strong α1 -adrenoceptor antagonistic effect
- Selectivity (prostate/artery) [4]: 4.37
- toxicity (in words) [8]: low toxicity

Structure (SMILES): O=c1cccnn1CCCNC[C@H]1COc2ccccc2O1 [(2)]
- ED50 [1]: 0.0034 mg/kg
- urogenital selectivity (in words) [1]: significant urogenital selectivity
- D/U: ED50 (diastolic pressure)/ED50 (urethra) [1]: 26.5
- ED50 (diastolic pressure): 0.09 mg/kg
- influence on other cardiovascular parameters (in words) (diastolic pressure): very weak influence only on other cardiovascular parameters
- Kb [5, 10]: 7.24 nM
- selectivity toward the postsynaptic α2-receptors (in words) [6]: excellent selectivity toward the postsynaptic α2 -receptors
- α2-adrenoceptor antagonistic activity (in words) [6]: strong α2 -adrenoceptor antagonistic activity
- Selectivity postsynaptic/presynaptic [6]: 21.4
- pA2 rat mesenteric artery [2]: 7.68
- Kb [7]: 155 nM
- Kb [3]: 5.89 nM
- α1-adrenoceptor antagonistic effect (in words) [4]: strong α1 -adrenoceptor antagonistic effect
- Selectivity (prostate/artery) [4]: 3.55
- toxicity (in words) [8]: low toxicity

Structure (SMILES): COc1cc2nc(N(C)CCCNC(=O)C3CCCO3)nc(N)c2cc1OC (stereo not shown) [Alfuzosin]
- pA2 rat mesenteric artery [2]: 8.60

Structure (SMILES): COc1cc2nc(N3CCN(C(=O)c4ccco4)CC3)nc(N)c2cc1OC [Prazosin, reference compound]
- urogenital selectivity of available drugs (in words) [9]: low or moderate
- ED50 [1]: 0.0187 mg/kg
- D/U: ED50 (diastolic pressure)/ED50 (urethra) [1]: 1.3
- ED50 (diastolic pressure): 0.025 mg/kg

Structure (SMILES): COc1cc2nc(N3CCN(C(=O)C4CCCO4)CC3)nc(N)c2cc1OC (stereo not shown) [Terazosin]
- pA2 rat mesenteric artery [2]: 8.45

Structure (SMILES): COC(=O)[C@@H]1[C@H]2C[C@H]3c4[nH]c5ccccc5c4CCN3C[C@@H]2CC[C@@H]1O [Yohimbine, reference compound]
- Kb [5]: 8.91 nM
